Results: US20250255867A1 (Kadmon Corporation, LLC, priority 2022, published 2025)

Conditions: Cohort 3 400 mg QD

CC(C)NC(=O)COc1cccc(-c2nc(Nc3ccc4[nH]ncc4c3)c3ccccc3n2)c1 [Belumosudil, 2-{3-[4-(1H-indazol-5-ylamino)-2-quinazolinyl]phenoxy}-N-(propan-2-yl) acetamide]
1: Hordeolum: # Events | Hyperhidrosis: # Events | Hyperthyroidism: # Events | Hypoaesthesia: # Events | Hypocalcaemia: # Events | Hypomagnesaemia: # Events | Hypophosphataemia: # Events | Joint range of motion decreased: # Events | Leukocytosis: # Events | Limb injury: # Events | Muscle spasticity: # Events | Musculoskeletal chest pain: # Events | Nasal congestion: # Events | Neutrophil count decreased: # Events | Non-cardiac chest pain: # Events | Oropharyngeal pain: # Events | Pain: # Events | Palpitations: # Events | Paraesthesia: # Events | Pleural effusion: # Events | Pulmonary mass: # Events | Rash: # Events
(14.29%): Hyperglycemia: Affected/At Risk (%) | Hyperkalaemia: Affected/At Risk (%) | Hyperuricaemia: Affected/At Risk (%) | Hypothyroidism: Affected/At Risk (%) | Hypoxia: Affected/At Risk (%) | Insomnia: Affected/At Risk (%) | Myalgia: Affected/At Risk (%) | Pyrexia: Affected/At Risk (%)
8: Headache: # Events | Hyperglycemia: # Events
6: Hypertension: # Events | Muscle spasms: # Events | Oedema peripheral: # Events
3/21: Hyperglycemia: Affected/At Risk | Hyperkalaemia: Affected/At Risk | Hyperuricaemia: Affected/At Risk | Hypothyroidism: Affected/At Risk | Hypoxia: Affected/At Risk | Insomnia: Affected/At Risk | Myalgia: Affected/At Risk | Pyrexia: Affected/At Risk
(9.52%): Hyponatraemia: Affected/At Risk (%) | Influenza: Affected/At Risk (%) | Muscular weakness: Affected/At Risk (%) | Photophobia: Affected/At Risk (%)
13 (62%) participants: Participants with TESAE
5: Hyperuricaemia: # Events | Pain in extremity: # Events
9/21: Nausea: Affected/At Risk
(28.57%): Headache: Affected/At Risk (%) | Muscle spasms: Affected/At Risk (%) | Oedema peripheral: Affected/At Risk (%)
1/21: Glucose urine present: Affected/At Risk | Haematuria: Affected/At Risk | Hordeolum: Affected/At Risk | Hyperhidrosis: Affected/At Risk | Hyperthyroidism: Affected/At Risk | Hypoaesthesia: Affected/At Risk | Hypocalcaemia: Affected/At Risk | Hypomagnesaemia: Affected/At Risk | Hypophosphataemia: Affected/At Risk | Joint range of motion decreased: Affected/At Risk | Leukocytosis: Affected/At Risk | Limb injury: Affected/At Risk | Muscle spasticity: Affected/At Risk | Musculoskeletal chest pain: Affected/At Risk | Nasal congestion: Affected/At Risk | Neuropathy peripheral: Affected/At Risk | Neutrophil count decreased: Affected/At Risk | Non-cardiac chest pain: Affected/At Risk | Oropharyngeal pain: Affected/At Risk | Pain: Affected/At Risk | Palpitations: Affected/At Risk | Paraesthesia: Affected/At Risk | Pleural effusion: Affected/At Risk | Productive cough: Affected/At Risk | Pulmonary mass: Affected/At Risk | Rash: Affected/At Risk
(0%): Glaucoma: Affected/At Risk (%) | Graft versus host disease in gastrointestinal tract: Affected/At Risk (%) | Gynaecomastia: Affected/At Risk (%) | Hair growth abnormal: Affected/At Risk (%) | Hodgkin's disease recurrent: Affected/At Risk (%) | Hot flush: Affected/At Risk (%) | Hypertriglyceridaemia: Affected/At Risk (%) | Hypogonadism: Affected/At Risk (%) | Hypokalaemia: Affected/At Risk (%) | Hypothermia: Affected/At Risk (%) | Impaired healing: Affected/At Risk (%) | Influenza like illness: Affected/At Risk (%) | Irritability: Affected/At Risk (%) | Lacrimation increased: Affected/At Risk (%) | Leukaemia recurrent: Affected/At Risk (%) | Ligament sprain: Affected/At Risk (%) | Macular degeneration: Affected/At Risk (%) | Migraine: Affected/At Risk (%) | Nail disorder: Affected/At Risk (%) | Neck pain: Affected/At Risk (%) | Nephrotic syndrome: Affected/At Risk (%) | Nocturia: Affected/At Risk (%) | Obesity: Affected/At Risk (%) | Oedema: Affected/At Risk (%) | Oesophageal ulcer: Affected/At Risk (%) | Oral candidiasis: Affected/At Risk (%) | Orthopnoea: Affected/At Risk (%) | Osteonecrosis: Affected/At Risk (%) | Osteopenia: Affected/At Risk (%) | Osteoporosis: Affected/At Risk (%) | Overdose: Affected/At Risk (%) | Pericardial effusion: Affected/At Risk (%) | Peripheral coldness: Affected/At Risk (%) | Peripheral sensory neuropathy: Affected/At Risk (%) | Phlebitis: Affected/At Risk (%) | Platelet count decreased: Affected/At Risk (%) | Pneumonia respiratory syncytial viral: Affected/At Risk (%) | Pneumonia: Affected/At Risk (%) | Pollakiuria: Affected/At Risk (%) | Presyncope: Affected/At Risk (%) | Proteinuria: Affected/At Risk (%) | Pruritus: Affected/At Risk (%) | Pseudomonas infection: Affected/At Risk (%) | Rash erythematous: Affected/At Risk (%) | Rash maculo-papular: Affected/At Risk (%) | Rash pustular: Affected/At Risk (%) | Red blood cells urine positive: Affected/At Risk (%)
0/21: Graft versus host disease in gastrointestinal tract: Affected/At Risk | Gynaecomastia: Affected/At Risk | Hair growth abnormal: Affected/At Risk | Hodgkin's disease recurrent: Affected/At Risk | Hot flush: Affected/At Risk | Hypertriglyceridaemia: Affected/At Risk | Hypogonadism: Affected/At Risk | Hypokalaemia: Affected/At Risk | Hypothermia: Affected/At Risk | Impaired healing: Affected/At Risk | Influenza like illness: Affected/At Risk | Irritability: Affected/At Risk | Lacrimation increased: Affected/At Risk | Leukaemia recurrent: Affected/At Risk | Ligament sprain: Affected/At Risk | Macular degeneration: Affected/At Risk | Migraine: Affected/At Risk | Nail disorder: Affected/At Risk | Neck pain: Affected/At Risk | Nephrotic syndrome: Affected/At Risk | Nocturia: Affected/At Risk | Obesity: Affected/At Risk | Oedema: Affected/At Risk | Oesophageal ulcer: Affected/At Risk | Oral candidiasis: Affected/At Risk | Orthopnoea: Affected/At Risk | Osteonecrosis: Affected/At Risk | Osteopenia: Affected/At Risk | Osteoporosis: Affected/At Risk | Overdose: Affected/At Risk | Pericardial effusion: Affected/At Risk | Peripheral coldness: Affected/At Risk | Peripheral sensory neuropathy: Affected/At Risk | Phlebitis: Affected/At Risk | Platelet count decreased: Affected/At Risk | Pneumonia respiratory syncytial viral: Affected/At Risk | Pneumonia: Affected/At Risk | Pollakiuria: Affected/At Risk | Presyncope: Affected/At Risk | Proteinuria: Affected/At Risk | Pruritus: Affected/At Risk | Pseudomonas infection: Affected/At Risk | Rash erythematous: Affected/At Risk | Rash maculo-papular: Affected/At Risk | Rash pustular: Affected/At Risk | Red blood cells urine positive: Affected/At Risk
4/21: Hypertension: Affected/At Risk | Pain in extremity: Affected/At Risk
2/21: Hyponatraemia: Affected/At Risk | Influenza: Affected/At Risk | Muscular weakness: Affected/At Risk | Photophobia: Affected/At Risk
(4.76%): Glucose urine present: Affected/At Risk (%) | Haematuria: Affected/At Risk (%) | Hordeolum: Affected/At Risk (%) | Hyperhidrosis: Affected/At Risk (%) | Hyperthyroidism: Affected/At Risk (%) | Hypoaesthesia: Affected/At Risk (%) | Hypocalcaemia: Affected/At Risk (%) | Hypomagnesaemia: Affected/At Risk (%) | Hypophosphataemia: Affected/At Risk (%) | Joint range of motion decreased: Affected/At Risk (%) | Leukocytosis: Affected/At Risk (%) | Limb injury: Affected/At Risk (%) | Muscle spasticity: Affected/At Risk (%) | Musculoskeletal chest pain: Affected/At Risk (%) | Nasal congestion: Affected/At Risk (%) | Neuropathy peripheral: Affected/At Risk (%) | Neutrophil count decreased: Affected/At Risk (%) | Non-cardiac chest pain: Affected/At Risk (%) | Oropharyngeal pain: Affected/At Risk (%) | Pain: Affected/At Risk (%) | Palpitations: Affected/At Risk (%) | Paraesthesia: Affected/At Risk (%) | Pleural effusion: Affected/At Risk (%) | Productive cough: Affected/At Risk (%) | Pulmonary mass: Affected/At Risk (%) | Rash: Affected/At Risk (%)
12: Nausea: # Events
6/21: Headache: Affected/At Risk | Muscle spasms: Affected/At Risk | Oedema peripheral: Affected/At Risk
(42.86%): Nausea: Affected/At Risk (%)
(19.05%): Hypertension: Affected/At Risk (%) | Pain in extremity: Affected/At Risk (%)
2: Haematuria: # Events | Hyponatraemia: # Events | Influenza: # Events | Muscular weakness: # Events | Neuropathy peripheral: # Events | Photophobia: # Events | Productive cough: # Events
0: Graft versus host disease in gastrointestinal tract: # Events | Gynaecomastia: # Events | Hair growth abnormal: # Events | Hodgkin's disease recurrent: # Events | Hot flush: # Events | Hypertriglyceridaemia: # Events | Hypogonadism: # Events | Hypokalaemia: # Events | Hypothermia: # Events | Impaired healing: # Events | Influenza like illness: # Events | Irritability: # Events | Lacrimation increased: # Events | Leukaemia recurrent: # Events | Ligament sprain: # Events | Macular degeneration: # Events | Migraine: # Events | Nail disorder: # Events | Neck pain: # Events | Nephrotic syndrome: # Events | Nocturia: # Events | Obesity: # Events | Oedema: # Events | Oesophageal ulcer: # Events | Oral candidiasis: # Events | Orthopnoea: # Events | Osteonecrosis: # Events | Osteopenia: # Events | Osteoporosis: # Events | Overdose: # Events | Pericardial effusion: # Events | Peripheral coldness: # Events | Peripheral sensory neuropathy: # Events | Phlebitis: # Events | Platelet count decreased: # Events | Pneumonia respiratory syncytial viral: # Events | Pneumonia: # Events | Pollakiuria: # Events | Presyncope: # Events | Proteinuria: # Events | Pruritus: # Events | Pseudomonas infection: # Events | Rash erythematous: # Events | Rash maculo-papular: # Events | Rash pustular: # Events | Red blood cells urine positive: # Events | Renal failure: # Events
20 (95%) participants: Participants with TEAE
4: Hyperkalaemia: # Events | Hypothyroidism: # Events
3: Glucose urine present: # Events | Hypoxia: # Events | Insomnia: # Events | Myalgia: # Events | Pyrexia: # Events
